From patent US7858635B2 (priority 2005, dated 2010)
Where two headings read alike, the source gives them in different places.

How the values were obtained:
M1 muscarinic receptor = target: T1, M1 muscarinic receptor (Homo sapiens, UniProt P11229); experiment: Functional mobilization of intracellular calcium (FLIPR, Fluo-3), M1-CHO cells; format: cell-based; conditions: for Emax: read-out: M1 Efficacy
T1 construct: expressed in transfected cells; host or cells: CHO cells (M1-CHO, under zeocin and G418 selection)
T1 sequence (P11229 1-460): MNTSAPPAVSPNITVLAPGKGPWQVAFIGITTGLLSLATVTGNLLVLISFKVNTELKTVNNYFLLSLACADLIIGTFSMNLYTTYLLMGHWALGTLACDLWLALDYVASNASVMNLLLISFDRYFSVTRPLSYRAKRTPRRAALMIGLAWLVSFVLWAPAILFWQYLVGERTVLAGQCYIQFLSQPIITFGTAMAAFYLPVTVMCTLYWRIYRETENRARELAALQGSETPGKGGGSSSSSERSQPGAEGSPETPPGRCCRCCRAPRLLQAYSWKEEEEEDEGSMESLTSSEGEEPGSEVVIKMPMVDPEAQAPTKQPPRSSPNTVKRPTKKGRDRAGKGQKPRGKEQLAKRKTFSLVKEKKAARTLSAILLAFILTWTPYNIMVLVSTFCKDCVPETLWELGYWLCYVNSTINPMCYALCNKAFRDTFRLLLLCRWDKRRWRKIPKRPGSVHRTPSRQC
Outline: (§1)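 Fluo-3 read-out, ex 488/em 540 nm, 60 sec on FLIPR 3. For agonist mode, compound added directly; for inhibition, 15 min compound pre-incubation before carbachol at EC80 (added as a 3× solution), or co-application. Buffer pH 7.4 with 1 mM probenecid; DMSO 0.5%.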

M4 muscarinic receptor = target: T2, M4 muscarinic receptor (Homo sapiens, UniProt P08173); experiment: Functional mobilization of intracellular calcium (FLIPR, Fluo-3), M4-CHO cells; format: cell-based; conditions: for Emax: read-out: M4 Efficacy
T2 construct: expressed in transfected cells; host or cells: CHO cells (M4-CHO, under puromycin, zeocin and blasticidin selection)
T2 sequence (P08173 1-479): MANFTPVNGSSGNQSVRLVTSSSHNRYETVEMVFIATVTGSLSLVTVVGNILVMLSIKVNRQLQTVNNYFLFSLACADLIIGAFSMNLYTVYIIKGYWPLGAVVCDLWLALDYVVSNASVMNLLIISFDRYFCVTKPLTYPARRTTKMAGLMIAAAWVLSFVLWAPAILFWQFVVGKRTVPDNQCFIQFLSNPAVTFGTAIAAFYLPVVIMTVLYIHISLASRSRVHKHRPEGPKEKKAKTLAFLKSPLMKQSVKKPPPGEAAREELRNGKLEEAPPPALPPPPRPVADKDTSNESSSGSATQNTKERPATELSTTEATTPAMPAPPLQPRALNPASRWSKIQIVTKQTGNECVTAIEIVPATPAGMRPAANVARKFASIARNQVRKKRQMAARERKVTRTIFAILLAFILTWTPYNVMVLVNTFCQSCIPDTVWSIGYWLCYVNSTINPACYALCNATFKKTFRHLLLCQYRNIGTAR
Outline: as §1

[1] = compound nos. 1-454, 100% efficacy is the maximum response obtained with the Carbachol control
[2] = compound nos. 1-454, M1-CHO cells, calcium mobilization
[3] = compound nos. 1-454, M4-CHO cells, calcium mobilization
[4] = compound nos. 455-509, 100% efficacy is the maximum response obtained with the Carbachol control

Structure (SMILES) | Emax (M1 muscarinic receptor; [1]) [%] | M1 Activity (M1 muscarinic receptor; [2]) | Emax (M4 muscarinic receptor; [1]) [%] | M4 Activity (M4 muscarinic receptor; [3]) | further results
O=C(OC1CCC1)N1C2CCC1CC(N1CCC3(CC1)COc1ccc(F)cc13)C2 (stereo not drawn) [compound 123] | < 65 | ++ (activity was measured to be between 0.7 μM and 3.0 μM) | < 55 | + (activity was measured to be greater than or equal to 4.0 μM) | 
Cc1ccc2c(c1)C1(CCN(C3CC4CCC3C4)CC1)CN2C(=O)c1ccno1 (stereo not drawn) [compound 292] | 65 to 85 | ++ (activity was measured to be between 0.7 μM and 3.0 μM) | 55 to 70 | + (activity was measured to be greater than or equal to 4.0 μM) | 
CC(=O)N1CC2(CCN(C3CCN(C(=O)OCCF)CC3)CC2)c2cc(F)ccc21 [compound 172] | > 85 | + (activity was measured to be greater than or equal to 3.0 μM) | 55 to 70 | + (activity was measured to be greater than or equal to 4.0 μM) | 
CCOC(=O)N1CCC(N2CCC3(CC2)CN(C(=O)O[C@H]2CCOC2)c2ccc(F)cc23)CC1 [compound 49] |  | +++ (activity was measured to be less than or equal to 0.7 μM) |  | +++ (activity was measured to be less than or equal to 0.1 μM) | M1 Efficacy (M1 muscarinic receptor; [1]): +++ (efficacy was calculated to be 85% or more); M4 Efficacy (M4 muscarinic receptor; [1]): ++ (efficacy was calculated to be between 70% and 55%)
CCCOC(=O)N1C2CCC1CC(N1CCC3(CC1)CN(C(=O)OCCOC)c1ccc(F)cc13)C2 (stereo not drawn) [compound 405] | < 65 |  | < 55 |  | M1 Activity (M1 muscarinic receptor; compound nos. 1-454): ++ (activity was measured to be between 0.7 μM and 3.0 μM); M4 Activity (M4 muscarinic receptor; compound nos. 1-454): + (activity was measured to be greater than or equal to 4.0 μM)
CC(C)OC(=O)N1C2CCC1CC(N1CCC3(CCc4ccccc43)CC1)C2 (stereo not drawn) [compound 285] | < 65 | ++ (activity was measured to be between 0.7 μM and 3.0 μM) | < 55 | + (activity was measured to be greater than or equal to 4.0 μM) | 
CCOC(=O)N1C2CCC1CC(N1CCC3(CC1)CN(C(=O)c1cc(C)oc1C)c1ccc(F)cc13)C2 (stereo not drawn) [compound 73] | 65 to 85 | +++ (activity was measured to be less than or equal to 0.7 μM) | 55 to 70 | ++ (activity was measured to be between 0.1 μM and 4.0 μM) | 
CN(C)C(=O)N1CCC2(CCN(C3CC4CCC(C3)N4c3cnccn3)CC2)c2ccccc21 (stereo not drawn) [compound 486] |  |  |  |  | Emax (M1 muscarinic receptor; [4]): > 100%; M1 Activity (M1 muscarinic receptor; compounds 455-509): +++ (activity was measured to be less than or equal to 2.0 μM); Emax (M4 muscarinic receptor; [4]): 25 to 100%; M4 Activity (M4 muscarinic receptor; compounds 455-509): ++ (activity was measured to be between 2.0 μM and 5.0 μM)
CCOC(=O)N1C2CCC1CC(N1CCC3(CC1)CN(S(=O)(=O)c1ccc(F)cc1)c1ccc(F)cc13)C2 (stereo not drawn) [compound 40] | 65 to 85 | +++ (activity was measured to be less than or equal to 0.7 μM) | > 70 | ++ (activity was measured to be between 0.1 μM and 4.0 μM) | 
Clc1ccc2c(c1)C1(CCN(CC3CCOCC3)CC1)CO2 [compound 415] | < 65 |  | < 55 |  | M1 Activity (M1 muscarinic receptor; compound nos. 1-454): + (activity was measured to be greater than or equal to 3.0 μM); M4 Activity (M4 muscarinic receptor; compound nos. 1-454): + (activity was measured to be greater than or equal to 4.0 μM)
CC(=O)N[C@H]1CC2(CCN(C3CCCCC3)CC2)c2ccccc21 [compound 196] | 65 to 85 | +++ (activity was measured to be less than or equal to 0.7 μM) | < 55 | + (activity was measured to be greater than or equal to 4.0 μM) | 
CC(C)OC(=O)N1C2CCC1CC(N1CCC3(CC1)CN(C(=O)C1CC1)c1ccc(F)cc13)C2 (stereo not drawn) [compound 345] | < 65 | +++ (activity was measured to be less than or equal to 0.7 μM) | < 55 | ++ (activity was measured to be between 0.1 μM and 4.0 μM) | 
c1ccc2c(c1)NCC21CCN(C2CCC3CCC2C3)CC1 (stereo not drawn) [compound 244] | 65 to 85 | ++ (activity was measured to be between 0.7 μM and 3.0 μM) | 55 to 70 | + (activity was measured to be greater than or equal to 4.0 μM) | 
COc1ccc(OC(=O)N2C3CCC2CC(N2CCC4(CC2)COc2ccc(F)cc24)C3)cc1 (stereo not drawn) [compound 100] |  | +++ (activity was measured to be less than or equal to 0.7 μM) |  | ++ (activity was measured to be between 0.1 μM and 4.0 μM) | Emax (M1 muscarinic receptor): 65 to 85%; Emax (M4 muscarinic receptor): 55 to 70%
CC(=O)NC1CC2(CCN(C3CCCCC3)CC2)c2ccccc21 (stereo not drawn) [compound 2] | < 65 | + (activity was measured to be greater than or equal to 3.0 μM) | < 55 | + (activity was measured to be greater than or equal to 4.0 μM) | 
CCOC(=O)N1CCC(CN2CCC3(CC2)C(=O)Nc2ccccc23)CC1 [compound 319] | < 65 | ++ (activity was measured to be between 0.7 μM and 3.0 μM) | < 55 | + (activity was measured to be greater than or equal to 4.0 μM) | 
CCOC(=O)N1CCC(N2CCC3(CC2)C[C@H](NC(C)=O)c2ccccc23)CC1 [compound 430] | < 65 |  | < 55 |  | M1 Activity (M1 muscarinic receptor; compound nos. 1-454): ++ (activity was measured to be between 0.7 μM and 3.0 μM); M4 Activity (M4 muscarinic receptor; compound nos. 1-454): + (activity was measured to be greater than or equal to 4.0 μM)
CC(=O)N1CC2(CCN(C3CCCC(C(F)(F)F)C3)CC2)c2cc(F)ccc21 (stereo not drawn) [compound 425] | < 65 |  | < 55 |  | M1 Activity (M1 muscarinic receptor; compound nos. 1-454): + (activity was measured to be greater than or equal to 3.0 μM); M4 Activity (M4 muscarinic receptor; compound nos. 1-454): + (activity was measured to be greater than or equal to 4.0 μM)
COC(=O)N1C2CCC1CC(N1CCC3(CC1)CN(C1CCN(c4nc(C)ns4)CC1)c1ccccc13)C2 (stereo not drawn) [compound 490] |  |  |  |  | Emax (M1 muscarinic receptor; [4]): > 100%; M1 Activity (M1 muscarinic receptor; compounds 455-509): ++ (activity was measured to be between 2.0 μM and 5.0 μM); Emax (M4 muscarinic receptor; [4]): 25 to 100%; M4 Activity (M4 muscarinic receptor; compounds 455-509): ++ (activity was measured to be between 2.0 μM and 5.0 μM)
CN(C)C(=O)N1CC2(CCN(C3CCN(c4nccnc4C#N)CC3)CC2)c2cc(F)ccc21 [compound 480] |  |  |  |  | Emax (M1 muscarinic receptor; [4]): 25 to 100%; M1 Activity (M1 muscarinic receptor; compounds 455-509): ++ (activity was measured to be between 2.0 μM and 5.0 μM); Emax (M4 muscarinic receptor; [4]): 25 to 100%; M4 Activity (M4 muscarinic receptor; compounds 455-509): ++ (activity was measured to be between 2.0 μM and 5.0 μM)
Fc1ccc2c(c1)C1(CCN(CC3CCC4CCC3C4)CC1)CN2 (stereo not drawn) [compound 13] | 65 to 85 | ++ (activity was measured to be between 0.7 μM and 3.0 μM) | < 55 | + (activity was measured to be greater than or equal to 4.0 μM) | 
